Laboratory results from patent US20200345701A1, “USE OF STATINS IN OVERCOMING RESISTANCE TO BETA-LACTAM ANTIBIOTICS IN BACTERIAL SPECIES SYNTHETIZING ISOPRENOIDS USING THE MEVALONATE SYNTHETIC PATHWAY” (CONSEJO SUPERIOR DE INVESTIGACIONES CIENTIFICAS (CSIC), priority 2017, published 2020).
“Also recorded” adds a separate entry of the source.

Key:
MRSA ΔfloA mutant [1] = assay: β-lactam antibiotic sensitivity of MRSA ΔfloA mutant versus WT; type: cell-based, Staphylococcus aureus; details: antibiotic concentrations that typically inhibit MSSA growth
[2] = system: Staphylococcus aureus MRSA strain USA300; assay: In vitro MRSA cell growth inhibition (bacterial count CFU/ml), statin or ZA with oxacillin; type: cell-based; details: for MRSA growth (CFU/ml) with oxacillin plus compound: combination with the β-lactam antibiotic oxacillin
S. aureus = assay: Growth curves of S. aureus cultures at different ZA concentrations; type: cell-based, Staphylococcus aureus; details: ZA 50 μM; TSB medium, 36 h, 37° C.
FloA membrane foci = FloA membrane foci count by fluorescence microscopy; type: cell-based, Staphylococcus aureus; details: ZA 50 μM
Description: Cells from liquid cultures were washed in PBS and resuspended in 0.5 ml 4% paraformaldehyde (6 min, room temperature). Samples were washed twice and resuspended in 0.5 ml PBS. Images were acquired on a Leica DMI6000B microscope equipped with a CRT6000 illumination system, with a HCX PL APO oil immersion objective (100×1.47) and a color camera DFC630FX. Leica Application Suite Advanced Fluorescence
Software was used for linear image processing. The YFP signal was detected (excitation filter 489 nm, emission filter 508 nm). Excitation times were 567 msec. Transmitted light images were taken with 55 msec excitation time.

PBP2a = type: cell-based; details: ZA-treated MRSA cells; bands at ~80 kDa
MRSA = type: cell-based, Staphylococcus aureus; details: β-lactam antibiotics; treated versus untreated MRSA
FloA and PBP2a = FloA and PBP2a oligomerization by sucrose gradient centrifugation; details: membrane fraction of ZA-treated versus untreated cells
Description: FloA oligomerization in S. aureus WT and Δcrt mutant and PBP2a oligomerization were analyzed in sucrose gradient assays. S. aureus cultures were harvested and cells crosslinked with 0.5 mM DSP (dithiobis(succinimidyl propionate)) before cell lysis and membrane fraction purification. Purified membrane fractions (200 μg) solubilized with 0.5% DDM were layered on a 5-40% linear sucrose gradient generated by a Biocomp gradient maker, then centrifuged (Beckman; 100,000 g, 16 h, 4° C.). Fractions (1 ml) were collected from the bottom of the gradient and proteins associated with each fraction were precipitated with 10% trichloroacetic acid (TCA). Protein fractions were dried and resuspended in PBS prior to immunoblot analyses.

ΔMAR flotillin variant [3] = type: binding, Staphylococcus aureus
ΔEA4 flotillin variant [4] = type: binding, Staphylococcus aureus
ΔPHB flotillin variant [5] = type: binding, Staphylococcus aureus
FloA (WT flotillin) = FloA (WT flotillin) (Staphylococcus aureus, UniProt Q99TS3); type: binding; details: purified WT FloA; sucrose gradient, FloA immunodetection in lipid fraction
ΔMAR flotillin variant [6] = type: binding, Staphylococcus aureus; remark: listed apart in the source
ΔEA4 flotillin variant [7] = type: binding, Staphylococcus aureus; remark: listed apart in the source
ΔPHB flotillin variant [8] = type: binding, Staphylococcus aureus; remark: listed apart in the source
MRSA ΔfloA mutant [9] = details: mice infected with ΔfloA mutant, 3×10^7 CFU; oxacillin 200 mg/kg/day; three days post-infection
Description: (§1) Female BALB/c mice (8-10 weeks old, 16-19 g weight) were purchased (Charles River Laboratories), Mice were housed in polypropylene cages in standardized lighting conditions and had ad libitum access to food and water.
(§2) The S. aureus strains were cultured on BHI medium (18 h, 37° C.). Cells were collected, washed three times with PBS and diluted to OD600 nm=0.05. Viable cell counts were determined by plating inoculum dilutions on TSB agar plates. For survival experiments, cohorts of 10 mice were infected with 150 μl of S. aureus cultures (3×10^7 cells) via intravenous injection. Each strain was used to infect one mouse cohort. Doses of oxacillin (200 mg/kg) alone or in combination with ZA (50 mg/Kg or 20 mg/Kg) were injected intraperitoneally (i.p.) daily for 1-4 days. […] The first dose was administered 30 min after the bacterial inoculation. Infections were allowed to progress until severe infection signs occurred or to a 3-day endpoint. Mice were sacrificed when they met the following criteria: 1) loss of at least 20% body weight, 2) loss of at least 15% body weight and ruffled fur, 3) loss of at least 10% body weight and hunched posture, or 4) 4 days post-infection.

MRSA WT strain = assay: Murine infection model, survival, WT strain; details: mice infected with WT, 3×10^7 CFU; oxacillin 200 mg/kg/day; three days post-infection
Description: as §1, §2

FloA (WT flotillin), sequence (Q99TS3 whole entry, looked up): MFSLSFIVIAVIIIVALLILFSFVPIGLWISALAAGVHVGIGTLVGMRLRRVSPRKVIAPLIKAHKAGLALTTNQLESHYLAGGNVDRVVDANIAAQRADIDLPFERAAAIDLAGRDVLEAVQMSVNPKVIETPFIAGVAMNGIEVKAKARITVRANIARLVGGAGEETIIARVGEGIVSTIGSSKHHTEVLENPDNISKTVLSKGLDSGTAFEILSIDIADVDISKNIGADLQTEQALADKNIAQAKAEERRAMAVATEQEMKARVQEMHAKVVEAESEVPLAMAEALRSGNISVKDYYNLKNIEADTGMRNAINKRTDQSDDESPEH

Cc1onc(-c2c(Cl)cccc2Cl)c1C(=O)N[C@@H]1C(=O)N2[C@@H]1SC(C)(C)[C@@H]2C(=O)O [dicloxacillin]
growth / resistance of ΔfloA compared to WT in presence of β-lactam antibiotic (MRSA ΔfloA mutant [1]): severe growth inhibition

CC1(C)S[C@@H]2[C@H](NC(=O)[C@H](N)c3ccccc3)C(=O)N2[C@H]1C(=O)O [ampicillin]
growth / resistance of ΔfloA compared to WT in presence of β-lactam antibiotic (MRSA ΔfloA mutant [1]): comparable resistance

CCOc1ccc2ccccc2c1C(=O)N[C@@H]1C(=O)N2[C@@H]1SC(C)(C)[C@@H]2C(=O)O [nafcillin]
growth / resistance of ΔfloA compared to WT in presence of β-lactam antibiotic (MRSA ΔfloA mutant [1]): severe growth inhibition

CC(C)c1c(C(=O)Nc2ccccc2)c(-c2ccccc2)c(-c2ccc(F)cc2)n1CC[C@@H](O)C[C@@H](O)CC(=O)O [atorvastatin]
MRSA growth (CFU/ml) with oxacillin plus compound [2]: did not alter the MRSA antibiotic-resistant phenotype

C=C(CC[C@]12O[C@H](C(=O)O)[C@@](O)(C(=O)O)[C@](C(=O)O)(O1)[C@H](OC(=O)/C=C/[C@@H](C)C[C@@H](C)CC)[C@H]2O)[C@@H](OC(C)=O)[C@H](C)Cc1ccccc1 [ZA, Zaragozic acid]
S. aureus growth (S. aureus): no growth defects; also recorded: did not affect | effect of increasing compound concentration on antibiotic effect of oxacillin ([2]; MRSA cultures, combination with oxacillin): potentiated the antibiotic effect of oxacillin | MRSA growth (CFU/ml) with oxacillin plus compound [2]: inhibited | MRSA growth (CFU/ml) in the presence of compound alone ([2]; without oxacillin): unaltered | number of FloA membrane foci (FloA membrane foci): reduced | PBP2a oligomerization (BN-PAGE) (PBP2a): deficient PBP2a oligomerization | antibiotic sensitivity profile of treated MRSA cultures (MRSA): resembled those of the ΔfloA mutant | oligomerization of flotillin and PBP2a (sucrose gradient) (FloA and PBP2a): reduced oligomerization of flotillin and PBP2a

CCC(C)CCCCCCCCCCC(=O)OC[C@H]1O[C@@H](OC(=O)/C(C)=C/C=C/C(C)=C/C=C/C(C)=C/C=C/C=C(C)/C=C/C=C(\C)CCC=C(C)C)[C@H](O)[C@@H](O)[C@@H]1O (stereo partly drawn) [staphyloxanthin]
Kd (ΔMAR flotillin variant [3]): 12 nM | Kd (ΔEA4 flotillin variant [4]): 9.43 nM | Kd (ΔPHB flotillin variant [5]): 943 nM | lipid-protein interaction in flotation assay (FloA (WT flotillin)): interacted strongly | lipid-protein interaction in flotation assay (ΔMAR flotillin variant [6]): interacted strongly | lipid-protein interaction in flotation assay (ΔEA4 flotillin variant [7]): interacted strongly | lipid-protein interaction in flotation assay (ΔPHB flotillin variant [8]): showed no tendency to interact

COc1cccc(OC)c1C(=O)N[C@@H]1C(=O)N2[C@@H]1SC(C)(C)[C@@H]2C(=O)O [methicillin]
growth / resistance of ΔfloA compared to WT in presence of β-lactam antibiotic (MRSA ΔfloA mutant [1]): severe growth inhibition

Cc1onc(-c2c(F)cccc2Cl)c1C(=O)N[C@@H]1C(=O)N2[C@@H]1SC(C)(C)[C@@H]2C(=O)O [flucoxacillin]
growth / resistance of ΔfloA compared to WT in presence of β-lactam antibiotic (MRSA ΔfloA mutant [1]): severe growth inhibition

Cc1onc(-c2ccccc2)c1C(=O)N[C@@H]1C(=O)N2[C@@H]1SC(C)(C)[C@@H]2C(=O)O [oxacillin]
growth / resistance of ΔfloA compared to WT in presence of β-lactam antibiotic (MRSA ΔfloA mutant [1]): severe growth inhibition | survival rate (MRSA ΔfloA mutant [9]): 70% | survival rate (MRSA WT strain): 10%
